Experimental data: the supplement of paper PMC10307832

Key:
Experiment in all cases: relative viability (nuclei count vs DMSO), 5 days (fraction); higher = more cells survive
Palbociclib + Trametinib = compound: CC(=O)c1c(C)c2cnc(Nc3ccc(N4CCNCC4)cn3)nc2n(C2CCCC2)c1=O [Palbociclib] + CC(=O)Nc1cccc(-n2c(=O)n(C3CC3)c(=O)c3c(Nc4ccc(I)cc4F)n(C)c(=O)c(C)c32)c1 [Trametinib] (partner 0.02 µM)
Outline: (§1)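 One day after seeding in 1536-well plates, lung cancer cell lines were dosed by pin tool. Dosing was either single-drug or a fixed anchor-drug dose plus five library-drug doses (not always all listed) in √10 steps. After 5 days, nuclei were stained in one fix-and-stain step and counted on 4× images, and relative viability is the nuclei count of treated wells over that of vehicle wells, given as the median of duplicate plates.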

Palbociclib + OSI-027 = compound: CC(=O)c1c(C)c2cnc(Nc3ccc(N4CCNCC4)cn3)nc2n(C2CCCC2)c1=O [Palbociclib] + COc1cccc2cc(-c3nc([C@H]4CC[C@H](C(=O)O)CC4)n4ncnc(N)c34)[nH]c12 [OSI-027] (partner 0.5 µM)
Outline: as §1

Palbociclib + Luminespib = compound: CC(=O)c1c(C)c2cnc(Nc3ccc(N4CCNCC4)cn3)nc2n(C2CCCC2)c1=O [Palbociclib] + CCNC(=O)c1noc(-c2cc(C(C)C)c(O)cc2O)c1-c1ccc(CN2CCOCC2)cc1 [Luminespib] (partner 0.01 µM)
Outline: as §1

Palbociclib + AZD7762 = compound: CC(=O)c1c(C)c2cnc(Nc3ccc(N4CCNCC4)cn3)nc2n(C2CCCC2)c1=O [Palbociclib] + NC(=O)Nc1cc(-c2cccc(F)c2)sc1C(=O)N[C@H]1CCCNC1 [AZD7762] (partner 0.2 µM)
Outline: as §1

Cell Line	relative viability (Palbociclib + Trametinib; first compound 0.01 µM)	relative viability (Palbociclib + Trametinib; first compound 0.03162 µM)	relative viability (Palbociclib + Trametinib; first compound 0.1 µM)	relative viability (Palbociclib + Trametinib; first compound 0.3162 µM)	relative viability (Palbociclib + Trametinib; first compound 1 µM)	relative viability (Palbociclib + OSI-027; first compound 0.01 µM)	relative viability (Palbociclib + OSI-027; first compound 0.03162 µM)	relative viability (Palbociclib + OSI-027; first compound 0.1 µM)	relative viability (Palbociclib + OSI-027; first compound 0.3162 µM)	relative viability (Palbociclib + OSI-027; first compound 1 µM)	relative viability (Palbociclib + Luminespib; first compound 0.01 µM)	relative viability (Palbociclib + Luminespib; first compound 0.03162 µM)	relative viability (Palbociclib + Luminespib; first compound 0.1 µM)	relative viability (Palbociclib + Luminespib; first compound 0.3162 µM)	relative viability (Palbociclib + Luminespib; first compound 1 µM)	relative viability (Palbociclib + AZD7762; first compound 0.01 µM)	relative viability (Palbociclib + AZD7762; first compound 0.03162 µM)	relative viability (Palbociclib + AZD7762; first compound 0.1 µM)	relative viability (Palbociclib + AZD7762; first compound 0.3162 µM)	relative viability (Palbociclib + AZD7762; first compound 1 µM)
201T	0.733	0.684	0.71	0.692	0.609	0.763	0.676	0.661	0.613	0.338	1.02	1.01	0.909	0.878	0.749	0.573	0.475	0.905	0.751	0.633
A-427	0.846	0.703	0.628	0.613	0.587	0.467	0.271	0.282	0.33	0.308	0.991	0.809	0.691	0.74	0.501	0.778	0.653	0.472	0.469	0.43
ABC-1	–	–	–	–	–	0.483	0.443	0.436	0.351	0.301	0.625	0.521	0.423	0.459	0.949	0.931	0.614	0.727	0.957	0.752
BEN	1.05	0.949	0.553	0.873	0.598	0.298	0.274	0.255	0.252	0.286	0.619	0.225	0.269	0.205	0.194	0.826	0.604	0.583	0.567	0.388
CAL-12T	0.437	0.316	0.207	0.204	0.166	0.766	0.546	0.441	0.446	0.316	0.367	0.318	0.463	0.277	0.206	0.646	0.569	0.516	0.51	0.409
COR-L23	0.666	0.521	0.362	0.434	0.209	0.763	0.6	0.491	0.521	0.39	0.647	0.515	0.511	0.429	0.434	–	–	–	–	–
COR-L 105	0.477	0.435	0.36	0.407	0.389	0.676	0.506	0.453	0.429	0.336	0.689	0.814	0.596	0.475	0.536	–	–	–	–	–
ChaGo-K-1	0.852	–	0.874	0.939	0.954	0.594	0.396	0.661	0.563	0.594	0.532	0.575	0.893	0.689	0.62	0.885	–	0.867	0.905	0.861
EKVX	0.3	–	0.247	0.251	0.244	0.713	0.664	0.6	0.575	0.366	0.856	0.745	0.919	0.841	0.605	0.7	–	0.673	0.558	0.38
EMC-BAC-2	0.815	0.797	0.718	0.694	0.512	0.368	0.346	0.29	0.318	0.29	1.19	1.15	0.952	0.979	0.848	1.13	0.935	0.955	1.02	0.713
EPLC-272H	0.286	–	0.268	0.244	0.25	0.293	–	0.257	0.254	0.213	0.225	–	0.346	0.518	0.379	0.306	–	0.383	0.251	0.274
H3255	0.606	0.588	0.539	0.48	0.412	0.597	0.49	0.405	0.469	0.382	0.925	0.91	0.65	0.587	0.464	1.07	0.8	0.831	0.798	0.506
HARA	0.654	0.545	0.763	0.627	0.338	0.509	–	0.272	0.303	0.122	0.65	–	0.447	0.514	0.28	0.379	0.137	0.244	0.364	0.242
HCC-15	0.409	–	0.325	0.37	0.304	0.677	–	0.549	0.54	0.426	0.267	–	0.378	0.502	0.418	1.27	–	1.03	1.13	0.866
HCC-44	1.07	1.1	1.02	0.987	1.1	0.487	0.492	0.512	0.582	0.482	0.933	1.01	1.02	1.35	1.11	1.03	0.98	0.97	0.96	1.01
